Laboratory results from ChEMBL document CHEMBL1157036, “QSPR modeling of octanol/water partition coefficient of antineoplastic agents by balance of correlations” (Eur J Med Chem, 2010).

Test: not given
Conditions: octanol/water

SMILES | logP
CC[C@]1(O)C[C@@H]2CN(CCc3c([nH]c4ccccc34)[C@@](C(=O)OC)(c3cc4c(cc3OC)N(C)[C@H]3[C@@](O)(C(=O)OC)[C@H](OC(C)=O)[C@]5(CC)C=CCN6CC[C@]43[C@@H]65)C2)C1 [VINBLASTINE] | 3.9
Nc1nc2[nH]cc(CCc3ccc(C(=O)N[C@@H](CCC(=O)O)C(=O)O)cc3)c2c(=O)[nH]1 [PEMETREXED] | -1.5
Cn1nnc2c(C(N)=O)ncn2c1=O [TEMOZOLOMIDE] | -2.8
COc1cc([C@@H]2c3cc4c(cc3[C@@H](O[C@@H]3O[C@@H]5CO[C@@H](c6cccs6)O[C@H]5[C@H](O)[C@H]3O)[C@H]3COC(=O)[C@H]23)OCO4)cc(OC)c1O [TENIPOSIDE] | 1.5
CN(C)/N=N/c1[nH]cnc1C(N)=O [DACARBAZINE] | -1.6

Test: physchem
Conditions: octanol/water
Description: Octanol-water partition coefficient, log P of the compound

SMILES | logP
O=C1CN2Cc3c(ccc(Cl)c3Cl)N=C2N1 [ANAGRELIDE] | 2.4
Nc1ccn([C@@H]2O[C@H](CO)[C@@H](O)C2(F)F)c(=O)n1 [GEMCITABINE] | -1.4
CCCCC(=O)OCC(=O)[C@]1(O)Cc2c(O)c3c(c(O)c2[C@@H](O[C@H]2C[C@H](NC(=O)C(F)(F)F)[C@H](O)[C@H](C)O2)C1)C(=O)c1c(OC)cccc1C3=O [VALRUBICIN] | 2.2
O=c1[nH]cc(F)c(=O)[nH]1 [FLUOROURACIL] | -0.8
NCC(=O)CCC(=O)O [AMINOLEVULINIC ACID] | -1.5
CC(=O)O[C@H]1C(=O)[C@@]2(C)[C@H]([C@H](OC(=O)c3ccccc3)[C@]3(O)C[C@H](OC(=O)[C@H](O)[C@@H](NC(=O)c4ccccc4)c4ccccc4)C(C)=C1C3(C)C)[C@]1(OC(C)=O)CO[C@@H]1C[C@@H]2O [PACLITAXEL] | 3
Sc1ncnc2nc[nH]c12 [MERCAPTOPURINE ANHYDROUS] | -0.4
N[C@@H](Cc1ccc(N(CCCl)CCCl)cc1)C(=O)O | 0.4
Nc1nc(Cl)nc2c1ncn2[C@@H]1O[C@H](CO)[C@@H](O)[C@@H]1F [CLOFARABINE] | 0
O=C(CCBr)N1CCN(C(=O)CCBr)CC1 [PIPOBROMAN] | 1.1
C[C@]12CC[C@@H]3c4ccc(OC(=O)N(CCCl)CCCl)cc4CC[C@H]3[C@@H]1CC[C@@H]2O [ESTRAMUSTINE] | 5.7
COc1cccc2c1C(=O)c1c(O)c3c(c(O)c1C2=O)C[C@@](O)(C(C)=O)C[C@@H]3O[C@H]1C[C@H](N)[C@H](O)[C@H](C)O1 [DAUNORUBICIN] | 0.1
CN(Cc1cnc2nc(N)nc(N)c2n1)c1ccc(C(=O)N[C@@H](CCC(=O)O)C(=O)O)cc1 [METHOTREXATE] | -2.2
O=NN(CCCl)C(=O)NC1CCCCC1 [LOMUSTINE] | 3
Nc1nc2nc[nH]c2c(=S)[nH]1 [THIOGUANINE] | -0.7
CN(N=O)C(=O)N[C@@H](C=O)[C@@H](O)[C@H](O)[C@H](O)CO [STREPTOZOCIN] | -1.7
Nc1nc(F)nc2c1ncn2[C@@H]1O[C@H](CO)[C@@H](O)[C@@H]1O [FLUDARABINE] | -2.8
COc1cccc2c1C(=O)c1c(O)c3c(c(O)c1C2=O)C[C@@](O)(C(=O)CO)C[C@@H]3O[C@H]1C[C@H](N)[C@H](O)[C@H](C)O1 [DOXORUBICIN] | -0.5
COc1cccc2c1C(=O)c1c(O)c3c(c(O)c1C2=O)C[C@@](O)(C(=O)CO)C[C@@H]3O[C@H]1C[C@H](N)[C@@H](O)[C@H](C)O1 [EPIRUBICIN] | -0.5

SMILES | logP
C=C(c1ccc(C(=O)O)cc1)c1cc2c(cc1C)C(C)(C)CCC2(C)C [BEXAROTENE] | 6.9
CC(=O)[C@]1(O)Cc2c(O)c3c(c(O)c2[C@@H](O[C@H]2C[C@H](N)[C@H](O)[C@H](C)O2)C1)C(=O)c1ccccc1C3=O [IDARUBICIN] | 0.2
Clc1ccc(C(c2ccccc2Cl)C(Cl)Cl)cc1 (configuration not stated) [MITOTANE] | 6
OC[C@H]1O[C@@H](n2cnc3c2NC=NC[C@H]3O)C[C@@H]1O [PENTOSTATIN] | -1.1
CC[C@@]1(O)C(=O)OCc2c1cc1n(c2=O)Cc2cc3c(CN(C)C)c(O)ccc3nc2-1 [TOPOTECAN] | 0.8
COc1cc(NS(C)(=O)=O)ccc1Nc1c2ccccc2nc2ccccc12 [AMSACRINE] | 3.8
Cc1nc2ccc(CN(C)c3ccc(C(=O)N[C@@H](CCC(=O)O)C(=O)O)s3)cc2c(=O)[nH]1 [RALTITREXED] | -1.2
O=C(O)CCCc1ccc(N(CCCl)CCCl)cc1 [CHLORAMBUCIL] | 3.9
O=P1(NCCCl)OCCCN1CCCl (configuration not stated) [IFOSFAMIDE] | 0.8
O=P1(N(CCCl)CCCl)NCCCO1 (configuration not stated) [CYCLOPHOSPHAMIDE ANHYDROUS] | 0.8
COC(=O)CCC(=O)CN [METHYL AMINOLEVULINATE] | -1.2
Cc1ccc(-c2cc(C(F)(F)F)nn2-c2ccc(S(N)(=O)=O)cc2)cc1 [CELECOXIB] | 3.9
O=C1c2c(O)ccc(O)c2C(=O)c2c(NCCNCCO)ccc(NCCNCCO)c21 [MITOXANTRONE] | -3.1
CCCCCOC(=O)Nc1nc(=O)n([C@@H]2O[C@H](C)[C@@H](O)[C@H]2O)cc1F [CAPECITABINE] | 0.4
CS(=O)(=O)OCCCCOS(C)(=O)=O [BUSULFAN] | -0.3
CC[C@]1(O)C[C@@H]2CN(CCc3c([nH]c4ccccc34)[C@@](C(=O)OC)(c3cc4c(cc3OC)N(C)[C@H]3[C@@](O)(C(N)=O)[C@H](O)[C@]5(CC)C=CCN6CC[C@]43[C@@H]65)C2)C1 [VINDESINE] | 2.9
CCC1=C[C@@H]2CN(C1)Cc1c([nH]c3ccccc13)[C@@](C(=O)OC)(c1cc3c(cc1OC)N(C)[C@H]1[C@@](O)(C(=O)OC)[C@H](OC(C)=O)[C@]4(CC)C=CCN5CC[C@]31[C@@H]54)C2 [VINORELBINE] | 4
CN(C)c1nc(N(C)C)nc(N(C)C)n1 [ALTRETAMINE] | 1.7
